Measurements as given in PMC5655689, “Therapeutic potential of the phosphino Cu(I) complex (HydroCuP) in the treatment of solid tumors” (Scientific Reports, 2017).
Where “and” joins values, the source holds several entries; their conditions need not be identical. Equal values may be shown once.

Tests used:
[1] = tested on: HCT-15 human colon cancer spheroids; test: 3D spheroid cell viability, acid phosphatase (APH) assay, HCT-15; assay type: cell-based; conditions: HCT-15 spheroids, 72 h, APH test; read-out: IC50 (μM) ± SD HCT-15
Description: (§1) In order to improve the predictive capacity of the in vitro assays, we tested HydroCuP activity in two 3D cell cultures of human colon cancer cells, HCT-15 and LoVo. The colon cancer spheroids were treated with HydroCuP for 72 h and the cell viability was assessed by means of the acid phosphatase (APH) assay (Fig. 1, panel A).
(§2) Figure 1 Activity in 3D cell cultures. (A) Spheroids (2.5 × 10^3 cells/well) were treated for 72 h with increasing concentrations of tested compounds. The growth inhibitory effect was evaluated by means of APH test. IC50 values were calculated from the dose-survival curves by four parameter logistic model (P < 0.05). SD = standard deviation.
(§3) Spheroids were initiated in liquid overlay by seeding 2.5 × 10^3 HCT-15 and LoVo cells/well in phenol red-free RPMI-1640 medium (Sigma Chemical Co.), containing 10% FCS and supplemented with 20% methyl cellulose stock solution. A total of 150 μl of this cell suspension was transferred to each well of a round bottom non-tissue culture treated 96 well-plate (Greiner Bio-one, Kremsmünster, Austria) to allow spheroid formation within 72 h.
(§4) A modified APH assay, which is based on quantification of cytosolic acid phosphatase activity, was used for determining cell viability in spheroids. Briefly, the pre-seeded spheroids were treated with fresh medium containing the compound to be studied at the appropriate concentration (range 5–150 μM). Triplicate cultures were established for each treatment. After 72 h, each well was treated with 100 μL of the assay buffer (0.1 M sodium acetate, 0.1% Triton-X-100, supplemented with ImmunoPure p-nitrophenyl phosphate; Sigma Chemical Co.) and, following 3 h of incubation, 10 μL of 1 M NaOH solution were added. The inhibition of the cell growth induced by the tested complexes was detected by measuring the absorbance of each well at 405 nm, using a Bio-Rad 680 microplate reader. Mean absorbance for each drug dose was expressed as a percentage of the control untreated well absorbance (T/C) and plotted vs drug concentration. IC50 values, the drug concentrations that reduce the mean absorbance at 405 nm 50% of those in the untreated control wells, were calculated by four-parameter logistic (4-PL) model. Evaluation was based on means from at least four independent experiments.

[2] = tested on: LoVo human colon cancer spheroids; test: 3D spheroid cell viability, acid phosphatase (APH) assay, LoVo; assay type: cell-based; conditions: 72 h, APH test, read-out: IC50 (μM) ± SD LoVo
Description: as §1, §2, §3, §4

[3] = tested on: Lewis Lung Carcinoma (LLC); test: In vivo antitumor activity towards Lewis Lung Carcinoma (LLC) implanted i.m. in C57BL mice; parameters: species or system mouse; conditions: for Average tumor weight (mean ± S.D., g) / Inhibition of tumor growth (%): day 15; for Body weight changes: LLC-bearing C57BL mice
Description: The schedule of HydroCuP administration in vivo was initially determined by assessing the total dose that could be injected without undue toxicity for different schedules in nontumor-bearing C57BL mice (data not shown). […] Three schedules of i.p. HydroCuP were administered: early treatment (days 3, 5, 7 and 9 after tumor inoculum), intermediate treatment (days 7–14) and late treatment with split-doses (days 9–11 with a loading dose and days 12–14 with a lower maintenance dose). […] Cisplatin treatment schedule was selected according to standard protocols designed to optimize its efficacy and minimize the occurrence of adverse events. For the early treatment, control mice received the vehicle (0.9% NaCl). HydroCuP was dosed at 25, 35 and 50 mg/kg i.p. on days 3, 5, 7, 9, 11 and 13 after tumor implantation. Cisplatin was dosed at 1.5 mg/kg i.p. on days 3, 5, 7, 9, 11 and 13 after tumor implantation.
The mice were purchased from Charles River, Italy, housed in steel cages under controlled environmental conditions (constant temperature, humidity, and 12 h dark/light cycle), and alimented with commercial standard feed and tap water ad libitum. The LLC cell line was purchased from ECACC, United Kingdom. The LLC cell line was maintained in DMEM (Euroclone, Pero, Italy) supplemented with 10% heat-inactivated foetal bovine serum (Euroclone, Pero, Italy), 10 mM L-glutamine, 100 U/mL penicillin, and 100 µg/mL streptomycin in a 5% CO2 air incubator at 37 °C. The LLC was implanted intramuscularly (i.m.) as a 2 × 10^6 cell inoculum into the right hind leg of 8-week old male and female C57BL mice (24 ± 3 g body weight). The antitumor activity of HydroCuP in LLC tumor model has been investigated by means of different schedules (early treatment, intermediate treatment and late treatment) and compared with that promoted by the reference metallodrug, CDDP. In the early-stage treatment, animals were treated at day 3, 5, 7, 9, 11 and 13 after the tumor cell inoculum with an i.p. injection of HydroCuP (25, 35 and 50 mg/kg), CDDP (1.5 mg/kg) or the vehicle solution (0.9% NaCl).
In the intermediate treatment, animals were treated after 7 days from tumor implantation (visible tumor) with daily i.p. doses of HydroCuP (30 and 50 mg/kg), CDDP (1.5 mg/kg) or the vehicle solution (0.9% NaCl). In the late treatment, animals were treated after 9 days from tumor implantation (palpable tumor) with i.p. doses of HydroCuP (50 mg/kg) from day 9 to day 11 and with i.p. doses of HydroCuP (30 mg/kg) from day 12 to day 14, or with daily doses of CDDP (1.5 mg/kg) or with the vehicle solution (0.9% NaCl). At day 15, animals were sacrificed, the legs were amputated at the proximal end of the femur, and the inhibition of tumor growth was determined according to the difference in weight of the tumor-bearing leg and the healthy leg of the animals expressed as a percentage referring to the control animals. Body weight was measured every 2 days and was taken as a parameter for systemic toxicity.

[4] = Nephrotoxicity: urinary biomarkers (uTP, NAG) in Sprague Dawley rats; assay type: in vivo, rat; conditions: single i.p. 1.5 mg/kg, urine 24, 72, 120 h
Description: Figure 5 Neurotoxicity studies. […] Bar: 500 µm. […] Nephrotoxicity studies. […] Error bars indicate the S.D. The potential nephrotoxic effect of HydroCuP was evaluated by measuring some specific biomarkers in urines obtained from 8-week-old male Sprague Dawley rats treated with a single i.p. injection of HydroCuP and CDDP. Urines of the treated animals were collected after 24, 72 and 120 h, and urinary total protein (uTP) and N-acetyl-β-D-glucosaminidase (NAG) were evaluated as signs of nephrotoxicity. […] On the contrary, treatment with HydroCuP determined a 24 h excretion of uTP roughly 12 times lower than that recorded with CDDP (Fig. 5, panel D). Following 120 h, the levels of uTP excreted by HydroCuP were 11 times lower compared with the reference metallodrug. Eight-week-old male Sprague Dawley rats were randomly allocated to five groups (five animals per group) and treated with a single i.p. injection of HydroCuP (50 mg/kg) or the vehicle solution (0.2 mL saline solution, control). Cisplatin (1.5 mg/kg,) was also used under the same experimental conditions for comparison purposes. […] Later, urines were centrifuged (150 g for 10 minutes at room temperature) to discard debris and aliquoted to measure creatinine, uTP and NAG. Urine creatinine assays were performed using creatinine assay kit from Sigma Chemical Co. (St. Louis, MO). uTPs were measured by means of BioRad Total Protein Test (Hercules, CA). Urinary NAG was measured spectrophotometrically with the NAG kit (Roche diagnostics, Basel, Switzerland) according to the manufacturer’s protocols. uTP and NAG are expressed as grams per millimoles of creatinine (g mmol^−1 creatinine).

[5] = parameters: method as in PMID 24035926; conditions: patients under cisplatin treatment; cited from earlier work
[6] = tested on: DRG explants from 15 day-embryonic Sprague-Dawley rats; test: Neurotoxicity: neurite elongation in DRG explants; conditions: 48 h, DRG explants with NGF; for Neurotoxic effect (neurite elongation): OXP 5, 7.5, 10 μM, HydroCuP 5, 10, 20 μM
Description: To investigate the potential neurotoxic effect of HydroCuP, we employed a well-established in vitro model based on organotypic cultures of DRG from 15-day-old rat embryos. Neurite elongation under NGF influence was evaluated in DRG explants. […] For comparison purposes, the effect induced by the reference drugs OXP and CDDP was also tested.
OXP and HydroCuP toxicity at 48 h in DRG explants from 15 day-embryonic Sprague-Dawley rats. Representative images of neurite length in maturing DRG explants with different concentrations of OXP and HydroCuP (A). Bar: 500 µm.
DRG from E15 Sprague-Dawley rats (Envigo, San Pietro al Natisone, Italy) were aseptically removed and cultured onto a single layer of rat tail collagen surfaces in 35-mm dishes as previously described[36].
The DRG were incubated in AN2 medium [MEM added with 1.4 mM L-glutamine (Euroclone, Pero, Italy), 10% calf bovine serum (Hyclone, Thermo Scientific, Logan, UT) 50 µg/ml ascorbic acid, 0.6% glucose (Sigma-Aldrich) in the presence of 5 ng/ml nerve growth factor (NGF; Life Technologies, Monza, Italy) in a 5% CO2 humidified incubator at 37 °C.
To evaluate the neurotoxicity of HydroCuP and OXP, the DRG explants were treated for 2 h with NGF and subsequently exposed to each drug at different concentrations for 48 h. OXP was tested at 5, 7.5 and 10 μM while 5, 10 and 20 μM of HydroCuP was used. DRG treated with AN2 medium supplemented with 5 ng/ml NGF alone were used as controls. Phase-contrast micrographs were taken, and the length of the longest neurite in each DRG was measured by Image J (NIH, Bethesda, MD), using a standard calibration grating photographed at the same magnification. A compound is considered neurotoxic when the mean neurite elongation is reduced by 50% or more after drug exposure vs control.

[7] = patients, reported by the Food and Drug Administration; cited from earlier work
[8] = tested on: LoVo colorectal oxaliplatin-sensitive xenograft; test: In vivo activity toward LoVo (OXP-sensitive) tumor xenograft in BALB/c nu/nu mice
Description: (§5) To this aim, we developed the OXP-sensitive and OXP-resistant LoVo xenografts in BALB/c nu/nu mice. […] OXP-sensitive or OXP-resistant LoVo cells (1 × 10^7) were injected in the flank of mice. Once tumor was established (tumor volumes of about 0.4 cm^3, around 14 days after tumor inoculation), mice were randomly divided into six groups (6 animals per group, 8 controls). The HydroCuP-treated groups (6 mice each group) received daily 30 mg/kg by i.p. injection and the OXP-treated group was given 2 mg/kg by i.p. injection. At day 30, animals were sacrificed, and the inhibition of tumor growth was determined (Fig. 4, panel A). Measurements of body weights were recorded from day 14 every 2 days until the experimental endpoint (Fig. 4, panel B).
(§6) (A) LoVo and LoVo-OXP tumor xenografts in 6-week-old BALB/c nu/nu mice by injecting 1 × 10^7 tumor cells subcutaneously on the left dorsal flank. After 24 h from tumor implantation, mice randomly divided into six groups (6 animals per group). Chemotherapy delayed until day 14 (tumor volumes of about 0.4 cm^3). From day 14, HydroCuP dosed daily at 30 mg/kg i.p., OXP dosed daily at 2 mg/kg i.p. At day 30, animals sacrificed, and the inhibition of tumor growth determined by comparing the volume of the control group and the treatment group expressed as percentage referred to the control animals. Error bars indicate the S.D. *p < 0.05, **p < 0.01, with respect to control. […] Body weight was measured every two days and was taken as a parameter of systemic toxicity. The error bars indicate the S.D. **P < 0.01; *P < 0.05.
(§7) LoVo and LoVo-OXP tumor xenografts were established in 6-week-old BALB/c nu/nu mice by injecting 1 × 10^7 tumor cells subcutaneously (100 μL in serum free medium) on the left dorsal flank. After 24 h from tumor implantation, mice were randomly divided into six groups (6 animals per group, 8 controls). Chemotherapy was delayed until the tumor was about 0.4 cm^3 (day 14). From day 14, HydroCuP was dosed daily at 30 mg/kg i.p. whereas OXP was dosed daily at 2 mg/kg i.p. Measurements of body weights and tumor volumes were recorded from day 14 every 2 days until the experimental endpoint. The long axis (L) and the short axis (S) were measured with callipers, and the tumor volume (V) was calculated using the following equation: V = SxSxL/2. At day 30, animals were sacrificed, and the inhibition of tumor growth was determined by comparing the volume of the control group and the treatment group expressed as percentage referred to the control animals.

[9] = tested on: LoVo colorectal oxaliplatin-resistant xenograft; test: In vivo activity toward LoVo-OXP (OXP-resistant) tumor xenograft in BALB/c nu/nu mice
Description: as §5, §6, §7

[10] = Early treatment, 1.5 mg/kg i.p. days 3, 5, 7, 9, 11, 13
[11] = 2 mg/kg daily i.p. from day 14, day 30

| SMILES | IC50 [1] [µM] | IC50 [2] [µM] | Average tumor weight (mean ± S.D., g) [3, 10] [g] | Inhibition of tumor growth (%) [3, 10] [%] | Body weight changes ([3]; Early treatment, 15 days) | Average tumor weight (mean ± S.D., g) ([3]; Intermediate treatment, 1.5 mg/kg daily i.p. day 7-14) [g] | Inhibition of tumor growth (%) ([3]; Intermediate treatment, 1.5 mg/kg daily i.p. day 7-14, 1.5 mg/kg) | Body weight changes ([3]; Intermediate treatment) | Average tumor weight (mean ± S.D., g) ([3]; Late treatment, 1.5 mg/kg daily i.p. from day 9) [g] | Inhibition of tumor growth (%) ([3]; Late treatment, 1.5 mg/kg daily i.p. from day 9, 1.5 mg/kg) | NAG [4] | uTP excretion [4] | Patients with irreversible renal damage [5] | Neurotoxic effect (neurite elongation) [6] | Rate of symptomatic neurotoxicity with any severity [7] | Reduction of neurite length ([6]; 7.5 µM) [%] | Body weight loss ([8]; 2 mg/kg daily i.p.) | Inhibition of tumor growth [8, 11] | Body weight loss ([9]; 2 mg/kg daily i.p.) | Inhibition of tumor growth [9, 11] [%] |
| --- | --- | --- | --- | --- | --- | --- | --- | --- | --- | --- | --- | --- | --- | --- | --- | --- | --- | --- | --- | --- |
| [NH2][Pt]([NH2])([Cl])[Cl] [CDDP, cisplatin, reference compound] | 68.2 ± 4.58 | 60.6 ± 6.28 | 0.168 ± 0.10 | 73.66 | substantial weight loss | 0.061 ± 0.03 | 87% and 87.84% | elevated weight loss | 0.118 ± 0.10 | 73% and 72.68% | significant increase | significant increase of uTP excretion | about one-third | significantly reduced neurite elongation in a dose-dependent manner |  |  |  |  |  |  |
| O=C1[O][Pt]2([NH][C@@H]3CCCC[C@H]3[NH]2)[O]C1=O [OXP, oxaliplatin] | 30.2 ± 2.34 | 22.2 ± 4.75 |  |  |  |  |  |  |  |  |  |  |  | significantly reduced neurite elongation in a dose-dependent manner | more than 70% | 50 | about 23% | about 55% | about 23% | 20 |
